Earlier results, collected in patent publication US12433860B2, “Treatment of multiple sclerosis comprising DHODH inhibitors” (Immunic AG, priority 2021, dated 2025).

System: patients with active rheumatoid arthritis
Conditions: 35 mg once-daily for 13 weeks; cited from earlier work

COc1cccc(-c2ccc(NC(=O)C3=C(C(=O)O)CCC3)c(F)c2)c1 [vidofludimus, 2-((3-fluoro-3′-methoxy-[1,1′-biphenyl]-4-yl)carbamoyl)cyclopent-1-enecarboxylic acid]
diarrhoea, alopecia, neutropenia or liver enzyme elevations: no notable increases
safety profile as compared to placebo: overall similar safety profile as compared to placebo
